Reference: a melting point compilation (Tetko et al.; mined from patent text by program, amines drawn as free bases though some values may be those of a salt)

Row | melting point [°C] | Structure (SMILES)
1 | 157 to 163 | Cn1ncnc1COc1nn2c(-c3ccccc3F)nncc2c1-c1cccc(-c2cccnc2)c1
2 | 109 | Cc1cccc(-c2n[nH]cc2Cl)c1
3 | 184 to 185 | COc1nc(C)cnc1NS(=O)(=O)c1ccccc1-c1ccc(C)cc1
4 | 196 to 198 | COC(=O)c1c(C(=O)OC)c(-c2ccccc2)c(C(=O)O)c(C(=O)O)c1-c1ccccc1
5 | 270 | COc1ccc(N2CCN(c3ccc(Nc4nc(-c5ccccc5)cs4)cc3)CC2)cc1
6 | 60 to 64 | CCOC(=O)[C@H](CC(C)C)NC(=O)[C@@H]1CCCN1C(=O)OCc1ccccc1
7 | 98 to 99 | COc1cccc(CC(=O)O)c1OCCCc1cc(OC(C)C)nn1Cc1ccc(C(F)(F)F)cc1Cl
8 | 132 | CCN(CC)CCOc1ccc(Nc2ncc3c(n2)N(C)C(=O)N(c2ccccc2C)C3)cc1
9 | 182 to 184 | CCOC(=O)CCCOc1ccc(C(=O)Nc2ccccc2S(=O)(=O)c2ccccc2-c2nnn[nH]2)cc1
10 | 148 to 154 | O[C@@H]1COC[C@H]1Oc1nc(N2CCNCC2)nc2ccccc12 (relative stereo)
11 | 71 | COC(=O)CC=CC=Cc1ccccc1
12 | 88 to 90 | CCOC(=O)C1=C(C=O)NC(CF)=C(C(=O)OCC)C1c1cccc([N+](=O)[O-])c1 (stereo not drawn)
13 | 85 to 87 | CN1C(=O)C(c2cccc(Br)c2)(c2ccc(OC(F)F)c(C3CC3)c2)N=C1N (stereo not drawn)
14 | 75 to 76 | CCOC(=O)CC(NC(=O)c1ccccc1)C(=O)c1ccco1 (stereo not drawn)
15 | 212 to 213 | O=C(O)CCC(=O)c1ccc(-c2ccc(Cl)s2)cc1
16 | 154 | CC(=O)OC1CSC(Oc2ccc(C)nc2[N+](=O)[O-])C(OC(C)=O)C1OC(C)=O (stereo not drawn)
17 | 149 to 150 | CC(=O)c1cc(-c2ccccc2)c(=O)n2c1-c1sccc1CC2
18 | 224 to 226 | Oc1ccc(-c2nsc3ccccc23)c(Cl)c1Cl
19 | 140 to 141 | Cn1ncc(N2CCCC2)c(-c2ccccc2C=O)c1=O
20 | 72.9 to 78.9 | CCCCOC(=O)N1CCSCC1
21 | 262 | O=c1[nH]c2cc(C(F)(F)F)cc3c2n(c1=O)C(P(=O)(O)O)CC3 (stereo not drawn)
22 | 282 to 285 | N=c1[nH]c2ccccc2c2nc(-c3ccco3)nn12
23 | 65 | C[C@@H]1C[C@H](OC(=O)C(C)(C)Oc2ccc(C(=O)c3ccc(Cl)cc3)cc2)CC(C)(C)C1 (relative stereo)

Row | melting point [°C] | Structure (SMILES)
24 | 88 to 89 | Cc1cc2c(cc1N)OCO2
25 | 88 to 100 | O=C1N(CC2CN(Cc3ccccc3)CCO2)c2ccccc2C12COc1cc3c(cc12)OCCO3 (stereo not drawn)
26 | 180 | CN(CC(=O)OC(C)(C)C)C[C@@H]1CC(c2ccc(-c3ccc(N4C[C@H](Cn5ccnn5)OC4=O)cc3F)cn2)=NO1
27 | 101 to 102 | CCOc1cc(OCCCCc2cn(-c3ccc(C(F)(F)F)cn3)nc2OCC)ccc1CCC(=O)O
28 | 94 | Cc1ccc(-c2cccc(CCl)n2)cc1
29 | 151 | Cc1nc(I)cn1-c1ccc(F)cc1
30 | 137 | Nc1cc(Oc2cccc(O)c2)ccc1[N+](=O)[O-]
31 | 162 to 163 | CC(=O)NCC1CN(c2ccc(S(=O)(=O)CCO)c(F)c2)C(=O)O1 (stereo not drawn)
32 | 108 to 110 | O=C(CBr)c1ccc2nnnn2c1
33 | 207 to 208 | COC(=O)c1ccc(C#Cc2ccc(O)c(C34CC5CC(CC(C5)C3)C4)c2)s1
34 | 163 to 164 | COc1ccc(/C=C/C(=O)c2c(OC)cc(OC)cc2OC(=O)[C@H](C)NC(=O)OCc2ccccc2)cc1
35 | 173 | CC(C)(C)OC(=O)N1CCO[C@@H](c2ccc(C(=O)O)cc2)C1
36 | 146 to 147 | CCNC(=O)c1cc(NS(=O)(=O)c2ccc(OC)cc2)ccc1Oc1cncc(Cl)c1
37 | 183 to 184 | O=C(NCCN1C(=O)C2(COc3cc4c(cc32)OCO4)c2ccccc21)c1ccccc1OC(F)(F)F (stereo not drawn)
38 | 237 to 240 | O=c1c(Cn2cncn2)cc2cc(Br)ccc2n1-c1ccccc1
39 | 105 to 107 | Cc1ccc2c(c1)c(-c1ccc(F)cc1)cn2N1CCN(C)CC1
40 | 215 to 216 | CCOC(=O)c1c(-c2ccccc2C)c2cc(Cl)ccc2[nH]c1=O
41 | 95 to 97 | CC(C)(C)c1cc(C(=O)c2cccs2)cc(CN2CCCC2)c1O
42 | 124 to 125 | COc1ccc(C(=O)C=CN(C)C)cc1OC
43 | 176 to 177 | O=C(CN1CCN(CCSc2nc3cccc(C(F)(F)F)c3o2)CC1)Nc1c(C(F)(F)F)cc(O)cc1C(F)(F)F
44 | 142 to 144 | COc1ccc(C(C#Cc2ccccc2)CC(N)=O)cc1OC1CCCC1 (racemic)
45 | 65 to 69 | Nn1cccc1C(=O)c1ccccc1
46 | 116 to 118 | O=[N+]([O-])c1ccc(Nc2cccc(-n3cccc3)c2)c([N+](=O)[O-])c1

Row | melting point [°C] | Structure (SMILES)
47 | 162 to 165 | CN1CCCCC1=C1C(=O)N(c2cccc(Cl)c2)c2ccccc21
48 | 219 to 221 | CC12CCC3c4cc(C=O)c(O)cc4CCC3C1CCC2O (stereo not drawn)
49 | 132 | C=CCN1C(=O)CN(c2ccc(Cc3ccccc3)cc2)C1=S
50 | 213 to 214 | Cc1ccc(Oc2ccccc2-c2noc(=O)[nH]2)c(O)c1
51 | 107 to 108 | CNC(=O)N(O)C(C)c1ccc(C)c(Br)c1 (stereo not drawn)
52 | 139 to 140 | CC(=O)Nc1cc2c(cc1[N+](=O)[O-])OCCCO2
53 | 140 to 143 | CCC(=O)NCCC1=CCc2cc(F)c(OC)cc21
54 | 158 to 160 | COc1ccc(-c2cc(CO)c(=O)n(CC=Cc3ccc(Cl)cc3)n2)cc1F
55 | 151 to 153 | COc1ccccc1Nc1ncccc1[N+](=O)[O-]
56 | 166 to 169 | OCC1Cc2c(c(Cl)cc3c(-c4c(F)cccc4F)noc23)O1 (stereo not drawn)
57 | 248 to 250 | COc1ccc2c(c1)c(-c1[nH]c3ncccc3c1F)cn2C
58 | 135 | O=C(Nc1cccc2[nH]ccc12)c1ccccc1OCCCCBr
59 | 219 to 220 | CCCN(CCC)C1Cc2cc3c(=O)[nH]n(Cc4ccccc4)c(=O)c3cc2C1 (stereo not drawn)
60 | 302 to 306 | CCCn1cc2c(C3C(=O)Nc4ccc(Cl)cc43)ncnc2n1 (stereo not drawn)
61 | 114 to 115 | COc1ccc(C(=O)c2cc(Br)c(OC)cc2OC)c(F)c1
62 | 100 to 102 | CCCSc1nc2c(cc1C#N)C(=O)CC(C)(C)C2
63 | 254 to 259 | CC(=O)c1c[nH]c(-c2ccc(O)cc2)n1
64 | 200 to 203 | CC(C)(C)OC(=O)N[C@]1(C)CC[C@H](CS(=O)(=O)c2ccc(S(C)(=O)=O)cc2)C1(C)C
65 | 177 to 178 | CN(C)S(=O)(=O)NCc1ccc(C(c2cc(F)ccc2F)S(=O)(=O)c2ccc(Cl)cc2)nc1 (stereo not drawn)
66 | 104 to 105 | COc1ccc(CNc2c([N+](=O)[O-])cc(Br)c3ccccc23)c(OC)c1
67 | 48 to 50 | C#CCN(CC#C)c1ccc(Cl)c(Cl)c1
68 | 137 to 138 | COc1nccc2c1C(c1ccccc1C(F)(F)F)C(C(=O)OCCN(C)C)=C(C)N2 (stereo not drawn)
69 | 104 to 107 | CCOC(=O)[C@H](Cc1ccc(-c2c(OC)cc(COS(C)(=O)=O)cc2OC)cc1)NC(=O)c1c(F)cccc1Cl

Row | melting point [°C] | Structure (SMILES)
70 | 193 to 197 | CS(=O)(=O)Nc1ccc(Cn2c(=O)n(Cc3ccc(C(F)(F)F)cc3)c3ccccc32)cc1
71 | 236 to 238 | Cc1nc2cc(NC(=O)c3cc4cccnc4n3-c3ccncc3)ccc2s1
72 | 224 | C=CCOC(=O)c1c(-c2ccncc2)[nH]c(-c2ccncc2)c1C
73 | 178 to 181 | O=C(Nc1ccc(Cl)cn1)c1cc(Cl)ccc1NCC1CCN(C2CCSC2)CC1 (stereo not drawn)
74 | 118 to 125 | CCC12CCC3C4=C(CC(OC)=CC4)C(C)CC3C1CCC2=O (stereo not drawn)
75 | 224 to 227 | OC1=C(C(=S)Nc2ccccc2)c2nc3ccccc3n2CC1
76 | 56 | Cc1ccccc1OCc1ccccc1N
77 | 66 to 69 | CC[C@H](C)[C@H](NC(=O)N(C)Cc1ccccn1)C(=O)N[C@@H](Cc1ccccc1)[C@@H](O)C[C@H](Cc1ccccc1)NC(=O)OCc1cncs1
78 | 145 to 146 | CCOC(=O)c1cc(OCc2ccccc2)ccc1OCC(F)(F)F
79 | 160 to 162 | COc1ccc(N2CCN(c3c(C)c(C)c4c(c3C)OC(C)(C)C4c3ccc(C)cc3)CC2)cc1 (stereo not drawn)
80 | 74 to 78 | COc1ccc(OCC2CCC(CBr)CC2)c(Cl)c1 (stereo not drawn)
81 | 238 to 241 | CC(=O)NC1(c2ccc(Cl)cc2)c2ccc(Cl)cc2-c2ncncc21 (stereo not drawn)
82 | 142 to 143 | COc1ccc(/C=N/Nc2ccccn2)cc1OC1CCCC1
83 | 173 to 175 | CCCCCCCCCCCCS(=O)(=O)c1cc2c(cc1S(=O)(=O)CCCCCCCCCCCC)C(=O)c1c(c(O)c3ccccc3c1O)C2=O
84 | 230 to 232 | Nc1c(CC(=O)O)cccc1Nc1ccccc1Cl
85 | 91 to 92 | C=CCOc1cc(-c2nn3c(c2Cl)CCCC3)c(F)cc1Cl
86 | 103 to 104 | CCC(O)(c1ccc(F)cc1)c1ccc(OCc2cccc(C)n2)cc1 (stereo not drawn)
87 | 138 to 139 | CCOC(=O)c1cc2c3ccccc3ncn2c1
88 | 218 to 221 | COc1cc2c(c3c1OC(C)(C)C3)C(c1cccc(-c3ccc(NC(=O)CNC(C)=O)cc3)c1)=NC(C)(C)C2
89 | 108 to 111 | CC(=O)Nc1c(-c2c(F)cc(F)cc2F)c(Cl)nc2ncnn12
90 | 145 to 146 | CC1Oc2ccc(OCCCC(C)(C)C(=O)O)cc2C=C1c1nccn1C (stereo not drawn)
91 | 128 to 130 | CC(=O)c1ccc(-c2cnco2)cc1

Row | Structure (SMILES) | melting point [°C]
92 | Cc1ccc(S(=O)(=O)n2cc(C[C@H]3CCCN3C)c3cc(Br)ccc32)cc1 | 98 to 104
93 | O=C(Nc1ccccc1)ONC1=Nc2ccc([N+](=O)[O-])cc2C(c2ccccc2Cl)=NC1 | 201 to 203
94 | NCCSC(c1ccccc1)c1ccccc1 | 74
95 | CCN1CCC(c2ccc(Br)cc2)CC1 | 33 to 34
96 | OCc1c(Cl)c(Cl)c(Cl)c(Cl)c1Cl | 195 to 196
97 | CC(C)(C)C(=O)c1c(CC(C)(C)C(=O)O)n(Cc2ccc(Cl)cc2)c2ccc(OCc3ccc4sccc4n3)cc12 | 193 to 194
98 | C[C@@H]1Cc2cc3c(cc2C(c2ccc([N+](=O)[O-])c(Cl)c2)=NN1)OCO3 | 165 to 170
